The values below come from US11945836B2, “Compositions and methods for treating CNS disorders” (Sage Therapeutics, Inc., priority 2014, dated 2024).

The target of this test is rat brain cortical membranes ([35S]-TBPS binding). Description: Steroid inhibition of [35S]-TBPS binding (radioligand displacement). Conditions: 3 nM [35S]-TBPS, in the presence of 5 μM GABA. The method, then:
Steroid Inhibition of TBPS Binding
TBPS binding assays using rat brain cortical membranes in the presence of 5 μM GABA has been described (Gee et al, J. Pharmacol. Exp. Ther. 1987, 241, 346-353; Hawkinson et al, Mol. Pharmacol. 1994, 46, 977-985; Lewin, A. H et al., Mol. Pharmacol. 1989, 35, 189-194).
Briefly, cortices are rapidly removed following decapitation of carbon dioxide-anesthetized Sprague-Dawley rats (200-250 g). The cortices are homogenized in 10 volumes of ice-cold 0.32 M sucrose using a glass/teflon homogenizer and centrifuged at 1500×g for 10 min at 4° C. The resultant supernatants are centrifuged at 10,000×g for 20 min at 4° C. to obtain the P2 pellets. The P2 pellets are resuspended in 200 mM NaCl/50 mM Na—K phosphate pH 7.4 buffer and centrifuged at 10,000×g for 10 min at 4° C. This washing procedure is repeated twice and the pellets are resuspended in 10 volumes of buffer. Aliquots (100 uL) of the membrane suspensions are incubated with 3 nM [^35S]-TBPS and 5 μL aliquots of test drug dissolved in dimethyl sulfoxide (DMSO) (final 0.5%) in the presence of 5 μM GABA. The incubation is brought to a final volume of 1.0 mL with buffer. […] Following a 90 min incubation at room temp, the assays are terminated by filtration through glass fiber filters (Schleicher and Schuell No. 32) using a cell harvester (Brandel) and rinsed three times with ice-cold buffer. Filter bound radioactivity is measured by liquid scintillation spectrometry. Non-linear curve fitting of the overall data for each drug averaged for each concentration is done using Prism (GraphPad). […] The concentration of test compound producing 50% inhibition (IC50) of specific binding and the maximal extent of inhibition (Imax) are determined for the individual experiments with the same model used for the overall data and then the means±SEMs of the individual experiments are calculated.
Various compounds are or can be screened to determine their potential as modulators of [^35S]-TBPS binding in vitro. These assays are or can be performed in accordance with the above discussed procedures.
A general note: Loss of bound radioactivity is the signal in a displacement assay; it reports binding, not function.
`C[C@@]1(O)CC[C@H]2[C@H](CC[C@@H]3[C@@H]2CC[C@]2(C)[C@@H](C(=O)c4nccs4)CC[C@@H]32)C1` [Compound 2]: the IC50 (in general, the midpoint of a concentration-inhibition curve) was greater than 100 nM. Then `Cn1ccnc1C(=O)[C@H]1CC[C@H]2[C@@H]3CC[C@@H]4C[C@](C)(O)CC[C@@H]4[C@H]3CC[C@]12C` [Compound 3], with greater than 100 nM. As to `C[C@@]1(O)CC[C@H]2[C@H](CC[C@@H]3[C@@H]2CC[C@]2(C)[C@@H](C(=O)c4cccs4)CC[C@@H]32)C1` [Compound 4], the IC50 lay in the range of 20 to 50 nM.

With `C[C@@]1(O)CC[C@H]2[C@H](CC[C@@H]3[C@@H]2CC[C@]2(C)[C@@H](C(=O)c4cc5ccccc5o4)CC[C@@H]32)C1` [Compound 5], the IC50 was in the range of 20 to 50 nM. With `Cn1c(C(=O)[C@H]2CC[C@H]3[C@@H]4CC[C@@H]5C[C@](C)(O)CC[C@@H]5[C@H]4CC[C@]23C)nc2ccccc21` [Compound 6], the IC50 is greater than 100 nM. Then `Cn1c(C(=O)[C@H]2CC[C@H]3[C@@H]4CC[C@@H]5C[C@](C)(O)CC[C@@H]5[C@H]4CC[C@]23C)cc2ccccc21` [Compound 7], with 50 to 100 nM; and `Cn1nccc1C(=O)[C@H]1CC[C@H]2[C@@H]3CC[C@@H]4C[C@](C)(O)CC[C@@H]4[C@H]3CC[C@]12C` [Compound 9], with 20 to 50 nM; and `C[C@@]1(O)CC[C@H]2[C@H](CC[C@@H]3[C@@H]2CC[C@]2(C)[C@@H](C(=O)c4ccsc4)CC[C@@H]32)C1` [Compound 10], with less than 20 nM. With `C[C@@]1(O)CC[C@H]2[C@H](CC[C@@H]3[C@@H]2CC[C@]2(C)[C@@H](C(=O)c4csc5ccccc45)CC[C@@H]32)C1` [Compound 11], the IC50 lay in the range of 20 to 50 nM.

`C[C@@]1(O)CC[C@H]2[C@H](CC[C@@H]3[C@@H]2CC[C@]2(C)[C@@H](C(=O)c4coc5ccccc45)CC[C@@H]32)C1` [Compound 12]: the IC50 was 20 to 50 nM. Consider `COc1cc(OC)cc(C(=O)[C@H]2CC[C@H]3[C@@H]4CC[C@H]5C[C@](C)(O)CC[C@]5(C)[C@H]4CC[C@]23C)c1` [Compound 13], for which the IC50 is greater than 100 nM. Consider `C[C@@]1(O)CC[C@@]2(C)[C@@H](CC[C@@H]3[C@@H]2CC[C@]2(C)[C@@H](C(=O)c4ccc5ccccc5c4)CC[C@@H]32)C1` [Compound 14], for which the IC50 was in the range of 50 to 100 nM.

Regarding `Cc1cc(C)cc(C(=O)[C@H]2CC[C@H]3[C@@H]4CC[C@@H]5C[C@](C)(O)CC[C@@H]5[C@H]4CC[C@]23C)c1` [Compound 16], the IC50 is less than 20 nM.

Take `Cc1ccc(C(=O)[C@H]2CC[C@H]3[C@@H]4CC[C@@H]5C[C@](C)(O)CC[C@]5(C)[C@H]4CC[C@]23C)cc1C` [Compound 17]: the IC50 was 50 to 100 nM. In the case of `C[C@@]1(O)CC[C@@]2(C)[C@H](CC[C@@H]3[C@@H]2CC[C@]2(C)[C@@H](C(=O)c4ccc5ccccc5c4)CC[C@@H]32)C1` [Compound 18], the IC50 is 50 to 100 nM. In the case of `C[C@@]1(O)CC[C@H]2[C@H](CC[C@@H]3[C@@H]2CC[C@]2(C)[C@@H](C(=O)c4ccc5ccccc5c4)CC[C@@H]32)C1` [Compound 19], the IC50 lay in the range of 50 to 100 nM. Then `Cc1ccc(C(=O)[C@H]2CC[C@H]3[C@@H]4CC[C@@H]5C[C@](C)(O)CC[C@@H]5[C@H]4CC[C@]23C)cc1C` [Compound 20], with 50 to 100 nM. As to `COc1cc(OC)cc(C(=O)[C@H]2CC[C@H]3[C@@H]4CC[C@@H]5C[C@](C)(O)CC[C@]5(C)[C@H]4CC[C@]23C)c1` [Compound 21], the IC50 was greater than 100 nM. Take `C[C@@]1(O)CC[C@@]2(C)[C@H](CC[C@@H]3[C@@H]2CC[C@]2(C)[C@@H](C(=O)c4ccc(-c5ccccc5)cc4)CC[C@@H]32)C1` [Compound 22]: the IC50 lay within 50 to 100 nM. In the case of `C[C@@]1(O)CC[C@@]2(C)[C@H](CC[C@@H]3[C@@H]2CC[C@]2(C)[C@@H](C(=O)c4cc(F)cc(F)c4)CC[C@@H]32)C1` [Compound 23], the IC50 was in the range of 50 to 100 nM. As for `C[C@@]1(O)CC[C@@]2(C)[C@H](CC[C@@H]3[C@@H]2CC[C@]2(C)[C@@H](C(=O)c4ccc5c(c4)OCO5)CC[C@@H]32)C1` [Compound 24], the IC50 is less than 20 nM.

Take `CSc1ccc(C(=O)[C@H]2CC[C@H]3[C@@H]4CC[C@@H]5C[C@](C)(O)CC[C@@H]5[C@H]4CC[C@]23C)cc1` [Compound 25]: the IC50 lay in the range of 20 to 50 nM. The result for `Cc1cc(C(=O)[C@H]2CC[C@H]3[C@@H]4CC[C@@H]5C[C@](C)(O)CC[C@@H]5[C@H]4CC[C@]23C)ccc1F` [Compound 26] reads 20 to 50 nM. In the case of `Cc1ccc(C(=O)[C@H]2CC[C@H]3[C@@H]4CC[C@@H]5C[C@](C)(O)CC[C@]5(C)[C@H]4CC[C@]23C)cc1F` [Compound 27], the IC50 lay in the range of 20 to 50 nM. Turning to `C[C@@]1(O)CC[C@@]2(C)[C@H](CC[C@@H]3[C@@H]2CC[C@]2(C)[C@@H](C(=O)c4ccccc4)CC[C@@H]32)C1` [Compound 28], the IC50 was in the range of 20 to 50 nM.

`CN(C)c1ccc(C(=O)[C@H]2CC[C@H]3[C@@H]4CC[C@@H]5C[C@](C)(O)CC[C@@H]5[C@H]4CC[C@]23C)cc1` [Compound 32]: the IC50 was in the range of 20 to 50 nM. For the compound `COc1ccc(C(=O)[C@H]2CC[C@H]3[C@@H]4CC[C@@H]5C[C@](C)(O)CC[C@]5(C)[C@H]4CC[C@]23C)c(C)c1` [Compound 33], the IC50 is greater than 100 nM. As to `C[C@@]1(O)CC[C@H]2[C@H](CC[C@@H]3[C@@H]2CC[C@]2(C)[C@@H](C(=O)c4ccc(OC(F)(F)F)cc4)CC[C@@H]32)C1` [Compound 34], the IC50 was less than 20 nM. As for `C[C@@]1(O)CC[C@H]2[C@H](CC[C@@H]3[C@@H]2CC[C@]2(C)[C@@H](C(=O)c4ccc5c(c4)OCO5)CC[C@@H]32)C1` [Compound 35], the IC50 was less than 20 nM.

As to `C[C@@]1(O)CC[C@@]2(C)[C@@H](CC[C@@H]3[C@@H]2CC[C@]2(C)[C@@H](C(=O)c4cc(F)cc(F)c4)CC[C@@H]32)C1` [Compound 37], the IC50 is 50 to 100 nM.

For the compound `Cc1cc(C(=O)[C@H]2CC[C@H]3[C@@H]4CC[C@H]5C[C@](C)(O)CC[C@]5(C)[C@H]4CC[C@]23C)ccc1F` [Compound 38], the IC50 is 50 to 100 nM. As for `Cc1ccc(C(=O)[C@H]2CC[C@H]3[C@@H]4CC[C@H]5C[C@](C)(O)CC[C@]5(C)[C@H]4CC[C@]23C)cc1C` [Compound 39], the IC50 was in the range of 50 to 100 nM. As for `CN(C)c1ccc(C(=O)[C@H]2CC[C@H]3[C@@H]4CC[C@@H]5C[C@](C)(O)CC[C@]5(C)[C@H]4CC[C@]23C)cc1` [Compound 40], the IC50 is 20 to 50 nM. For `Cc1ccc(C(=O)[C@H]2CC[C@H]3[C@@H]4CC[C@@H]5C[C@](C)(O)CC[C@@H]5[C@H]4CC[C@]23C)cc1F` [Compound 41], the IC50 fell in the range of 20 to 50 nM.

For the compound `CCc1ccc(C(=O)[C@H]2CC[C@H]3[C@@H]4CC[C@@H]5C[C@](C)(O)CC[C@@H]5[C@H]4CC[C@]23C)cc1` [Compound 42], the IC50 was less than 20 nM. The result for `COc1ccc(C(=O)[C@H]2CC[C@H]3[C@@H]4CC[C@@H]5C[C@](C)(O)CC[C@@H]5[C@H]4CC[C@]23C)c(C)c1` [Compound 43] reads 20 to 50 nM; that for `C[C@@]1(O)CC[C@H]2[C@H](CC[C@@H]3[C@@H]2CC[C@]2(C)[C@@H](C(=O)c4ccc(-c5ccccc5)cc4)CC[C@@H]32)C1` [Compound 44], 50 to 100 nM. For the compound `Cc1ccc(C(=O)[C@H]2CC[C@H]3[C@@H]4CC[C@H]5C[C@](C)(O)CC[C@]5(C)[C@H]4CC[C@]23C)cc1F` [Compound 45], the half-inhibitory concentration (IC50) was greater than 100 nM. On to `Cc1ccsc1C(=O)[C@H]1CC[C@H]2[C@@H]3CC[C@@H]4C[C@](C)(O)CC[C@@H]4[C@H]3CC[C@]12C` [Compound 46], for which the IC50 was greater than 100 nM.
